Results reported in US11981680B2, “Substituted thienopyrroles as PAD4 inhibitors” (BRISTOL-MYERS SQUIBB COMPANY, priority 2018, dated 2024).

What follows are compounds tested against human PAD4 (hPAD4) (Homo sapiens (Human), UniProt Q9UM07) (assay: RFMS Human PAD4 Functional Assay). Conditions: rapid-fire mass spectrum (RFMS) assay; 5 nM hPAD4 enzyme, 250 μM BAEE, 30 min preincubation at 37° C.
Assay type: biochemical
Procedure: Compounds of the present invention were assayed as inhibitors of PAD4 using the assay protocol described below.
RFMS Human PAD4 Functional Assay:
Compounds were solubilized in 100% DMSO to achieve a10 mM compound concentration. Compound stock solutions were stored at RT. A series of dilutions were prepared in DMSO and mixed 8 times with 20 μL mixing volume. Final top concentration of compound in the assay is 50 μM. Final assay conditions were as follows: • Reaction volume: 26 μl • Assay buffer: 25 mM hepes, pH 7.5, 5 mM NaCl, 1 mM DTT, 0.2 mg/ml BSA, 0.01% CHAPS, 50 μM Calcium, and 5 μM TPEN • Final concentrations: 5 nM hPAD4 enzyme, 250 μM BAEE, and 0.5% DMSO • Total incubation time: 30 mins compound and enzyme preincubation at 37° C., 90 min enzyme/substrate reaction, 30 min reaction with phenyl glyoxal at 37° C. • Stop solution: 40 μl 5% TCA in ACN
0.13 μL of compound solution was added to 13 μL of 10 nM PAD4 in assay buffer. After 30 min 13 μl of 500 μM of BAEE was added in 25 mM hepes, pH 7.5, 5 mM NaCl, 1 mM DTT, 0.2 mg/ml BSA, 0.01% CHAPS, 50 μM Calcium, 5 μM TPEN was added and the reaction incubated for 90 min at 37° C. The enzymatic reaction was quenched by addition of 15 μl of 6.1N TCA, 100% Final Concentration is 20%, 35 μl of 8.5 mM phenyl glyoxal (final concentration 4 mM) is then added and the reaction is incubated for 30 min at 37° C.
After 30 minutes the plates are spun down to remove all precipitate. The enzyme reaction was quenched with an equal volume of methanol containing internal standard (modified citrulline). Samples were loaded onto the Rapid Fire RF300 system (Agilent) wherein they were first sipped for 1000 ms and then directly loaded to a C18 separations cartridge using a mixture of acetonitrile containing 0.01% formic acid for 3000 ms desalting. The flow rate of the mobile phase was 1.5 ml/min. Once the samples were eluted from the cartridge, a mobile phase of acetonitrile containing 0.01% formic acid was used to move the samples into the mass spectrometer for 4000 ms at a flow rate of 1.25 ml/min/Sciex API5500 triple quadrupole mass spectrometer (Applied Biosystems) equipped with ESI was used to analyze the peptidyl citrulline and internal standard ions.
MRM transition of product and internal standard were monitored at m/z 424.5 to 350.4 and m/z 293 to 247 respectively. The dwell time for each transition was set at 200 ms, and the ESI voltage was used at 5500 with a source temperature of 400° C. Extracted ion peaks for each transition were integrated using the Rapid Fire Integrator software. Peak area of analyte was normalized with internal standard.).

Sequence of human PAD4 (hPAD4) (Q9UM07 whole entry): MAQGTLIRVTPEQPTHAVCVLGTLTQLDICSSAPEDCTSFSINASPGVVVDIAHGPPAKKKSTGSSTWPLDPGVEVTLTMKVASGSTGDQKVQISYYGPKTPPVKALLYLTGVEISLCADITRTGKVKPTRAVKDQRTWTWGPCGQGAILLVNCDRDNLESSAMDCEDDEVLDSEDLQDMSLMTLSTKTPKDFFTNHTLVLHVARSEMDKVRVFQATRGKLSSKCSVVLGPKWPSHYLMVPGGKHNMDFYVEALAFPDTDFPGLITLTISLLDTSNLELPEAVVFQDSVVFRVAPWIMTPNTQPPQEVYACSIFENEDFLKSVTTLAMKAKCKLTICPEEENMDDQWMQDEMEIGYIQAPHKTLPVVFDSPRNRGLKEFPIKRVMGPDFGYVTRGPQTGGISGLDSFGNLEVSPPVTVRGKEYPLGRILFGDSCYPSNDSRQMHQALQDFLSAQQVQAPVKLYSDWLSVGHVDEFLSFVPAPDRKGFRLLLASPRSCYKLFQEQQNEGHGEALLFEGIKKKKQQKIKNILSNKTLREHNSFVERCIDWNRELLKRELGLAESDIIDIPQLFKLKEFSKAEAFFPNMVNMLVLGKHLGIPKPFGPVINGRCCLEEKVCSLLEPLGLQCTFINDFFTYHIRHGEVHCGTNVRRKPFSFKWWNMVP

Structure (SMILES)	IC50 [nM]
COc1cc(C(=O)N2C[C@H]3CC[C@@H]2[C@@H]3N)cc2nc(-c3cc4scc(CCC(C)(C)O)c4n3CC3CC3)n(C)c12 [Example 6, ((1R,4R,7R)-7-amino-2-azabicyclo[2.2.1]heptan-2-yl)(2-(4-(cyclopropylmethyl)-3-(3-hydroxy-3-methylbutyl)-4H-thieno[3,2-b]pyrrol-5-yl)-7-methoxy-1-methyl-1H-benzo[d]imidazol-5-yl)methanone]	32
COc1cc(C(=O)N2C[C@H]3CC[C@@H]2[C@@H]3N)cc2nc(-c3cc4sc(-c5cn[nH]c5)cc4n3CC3CC3)n(C)c12 [Example 26, ((1R,4R,7R)-7-amino-2-azabicyclo[2.2.1]heptan-2-yl)(2-(4-(cyclopropylmethyl)-2-(1H-pyrazol-4-yl)-4H-thieno[3,2-b]pyrrol-5-yl)-7-methoxy-1-methyl-1H-benzo[d]imidazol-5-yl)methanone]	107
COc1cc(C(=O)N2C[C@H]3CC[C@@H]2[C@@H]3N)cc2nc(-c3cc4scc(-c5cccs5)c4n3CC3CC3)n(C)c12 [Example 38, ((1R,4R,7R)-7-amino-2-azabicyclo[2.2.1]heptan-2-yl)(2-(4-(cyclopropylmethyl)-3-(thiophen-2-yl)-4H-thieno[3,2-b]pyrrol-5-yl)-7-methoxy-1-methyl-1H-benzo[d]imidazol-5-yl)methanone]	100
COc1cc(C(=O)N2C[C@H]3CC[C@@H]2[C@@H]3N)cc2nc(-c3cc4scc(C5CC(NC(C)=O)C5)c4n3CC3CC3)n(C)c12 (stereo partly drawn) [Example 5, N-(3-(5-(5-((1R,4R,7R)-7-amino-2-azabicyclo[2.2.1]heptane-2-carbonyl)-7-methoxy-1-methyl-1H-benzo[d]imidazol-2-yl)-4-(cyclopropylmethyl)-4H-thieno[3,2-b]pyrrol-3-yl)cyclobutyl)acetamide]	19
COc1cc(C(=O)N2C[C@H]3CC[C@@H]2[C@@H]3N)cc2nc(-c3cc4scc(-c5ccc(O)c(Cl)c5)c4n3CC3CC3)n(C)c12 [Example 35, ((1R,4R,7R)-7-amino-2-azabicyclo[2.2.1]heptan-2-yl)(2-(3-(3-chloro-4-hydroxyphenyl)-4-(cyclopropylmethyl)-4H-thieno[3,2-b]pyrrol-5-yl)-7-methoxy-1-methyl-1H-benzo[d]imidazol-5-yl)methanone]	150
COc1cc(C(=O)N2C[C@H]3CC[C@@H]2[C@@H]3N)cc2nc(-c3cc4scc(C5CN(C(C)=O)C5)c4n3CC3CC3)n(C)c12 [Example 23, 1-(3-(5-(5-((1R,4R,7R)-7-amino-2-azabicyclo[2.2.1]heptane-2-carbonyl)-7-methoxy-1-methyl-1H-benzo[d]imidazol-2-yl)-4-(cyclopropylmethyl)-4H-thieno[3,2-b]pyrrol-3-yl)azetidin-1-yl)ethan-1-one]	55
COc1cc(C(=O)N2C[C@H](N)C[C@@H](F)C2)cc2nc(-c3cc4sc(C)cc4n3CC3CC3)n(C)c12 [Example 28, ((3R,5R)-3-amino-5-fluoropiperidin-1-yl)(2-(4-(cyclopropylmethyl)-2-methyl-4H-thieno[3,2-b]pyrrol-5-yl)-7-methoxy-1-methyl-1H-benzo[d]imidazol-5-yl)methanone]	67
COc1cc(C(=O)N2C[C@H](N)C[C@@H](F)C2)cc2nc(-c3cc4scc(Br)c4n3CC3CC3)n(C)c12 [Example 31, ((3R,5R)-3-amino-5-fluoropiperidin-1-yl)(2-(3-bromo-4-(cyclopropylmethyl)-4H-thieno[3,2-b]pyrrol-5-yl)-7-methoxy-1-methyl-1H-benzo[d]imidazol-5-yl)methanone]	60
COc1cc(C(=O)N2C[C@H]3CC[C@@H]2[C@@H]3N)cc2nc(-c3cc4scc(C5CCN(C(C)=O)CC5)c4n3CC3CC3)n(C)c12 [Example 4, 1-(4-(5-(5-((1R,4R,7R)-7-amino-2-azabicyclo[2.2.1]heptane-2-carbonyl)-7-methoxy-1-methyl-1H-benzo[d]imidazol-2-yl)-4-(cyclopropylmethyl)-4H-thieno[3,2-b]pyrrol-3-yl)piperidin-1-yl)ethan-1-one]	14
COc1cc(C(=O)N2C[C@H]3CC[C@@H]2[C@@H]3N)cc2nc(-c3cc4sc(C)cc4n3CC3CC3)n(C)c12 [Example 27, ((1R,4R,7R)-7-amino-2-azabicyclo[2.2.1]heptan-2-yl)(2-(4-(cyclopropylmethyl)-2-methyl-4H-thieno[3,2-b]pyrrol-5-yl)-7-methoxy-1-methyl-1H-benzo[d]imidazol-5-yl)methanone]	62
COc1cc(C(=O)N2C[C@H]3CC[C@@H]2[C@@H]3N)cc2nc(-c3cc4sc(Br)cc4n3CC3CC3)n(C)c12 [Example 24, ((1R,4R,7R)-7-Amino-2-azabicyclo[2.2.1]heptan-2-yl)(2-(2-bromo-4-(cyclopropylmethyl)-4H-thieno[3,2-b]pyrrol-5-yl)-7-methoxy-1-methyl-1H-benzo[d]imidazol-5-yl)methanone]	41
